Like-named read-outs stand apart in the source and are kept apart here.
Assay: Pharmacokinetics after intra-duodenal injection (ID) in anesthetized rats, model mimicking enteric-coated oral dosage form, plasma LC-MS
Format: in vivo, rat
Settings: rat, plasma; for Tmax / AUC(0-t) / Cmax / Half-Life: other: intra-duodenal injection (ID); for AUC(0-t): read-out: AUC0-90 (converted); for Cmax: read-out: Cmax; for level at 5 min: time point 5 min; for level at 5 min / level at 10 min / level at 20 min / level at 40 min / level at 1 h / level at 1.5 h: Average, read-out: Angiotensin (1-7) concentration; for level at 10 min: time point 10 min; for level at 20 min: time point 20 min; for level at 40 min: time point 40 min; for level at 1 h: time point 60 min; for level at 1.5 h: time point 90 min
Experimental: This model mimics the release and absorption expected from an orally delivered enteric coated solid dosage form such as capsule or tablet.
After extraction, the samples were then transferred to ice-cold tubes containing a protease inhibitor cocktail. The samples were kept on ice until they were centrifuged at 4° C. to obtain plasma. The plasma supernatants were then frozen −70° C. until analysis using an LC-MS assay.
The oral delivery of an angiotensin (1-7) peptide (e.g., TXA127) was then evaluated in a rat model that mimics the release of the peptide into the intestine by enteric-coated capsule. Briefly, the duodenums of anesthetized rats were surgically exposed, and an angiotensin (1-7) peptide was delivered through a 27 gauge needle into the duodenum. A baseline was obtained by ID administration of an angiotensin (1-7) in PBS. Samples of blood was removed from the carotid artery before and 5, 10, 20, 40, 60 and 90 minutes after peptide administration. Subsequently, an angiotensin (1-7) peptide was administered ID in 400 mM citrate buffer (pH 3.5) and lauroyl-L-carnitine (LLC) (10 mg/ml), a formulation that mimics the contents of the enteric-coated capsules. In order to maximize the stability of TXA127 in rat circulation, captopril (e.g., 0.5 mg/ml or 5 mg/ml) may be added to the formulations. Blood samples were taken at the same time points as the baseline study and handled as described above for analysis.

[1] = 3 mg, ID 0.3 ml A [10 mg/ml in PBS], Mean PK Values (average of individual PK parameters)
[2] = 3 mg, pH 3.5, ID 0.3 ml B [10 mg/ml, 10 mg/ml LLC, 400 mM Citrate pH 3.5, 150 mM NaCl], Average (PK value of the mean concentrations)
[3] = 3 mg, pH 3.5, ID 0.3 ml B [10 mg/ml, 10 mg/ml LLC, 400 mM Citrate pH 3.5, 150 mM NaCl], Mean PK Values (average of individual PK parameters)
[4] = 3 mg, pH 3.5, ID 0.3 ml C [10 mg/ml, Captopril 0.5 mg/ml, 10 mg/ml LLC, 400 mM Citrate pH 3.5, 150 mM NaCl], Average (PK value of the mean concentrations)
[5] = 3 mg, pH 3.5, ID 0.3 ml C [10 mg/ml, Captopril 0.5 mg/ml, 10 mg/ml LLC, 400 mM Citrate pH 3.5, 150 mM NaCl], Mean PK Values (average of individual PK parameters)
[6] = 3 mg, pH 3.5, ID 0.3 ml C [10 mg/ml, Captopril 5 mg/ml, 10 mg/ml LLC, 400 mM Citrate pH 3.5, 150 mM NaCl], Average (PK value of the mean concentrations)
[7] = 3 mg, pH 3.5, ID 0.3 ml C [10 mg/ml, Captopril 5 mg/ml, 10 mg/ml LLC, 400 mM Citrate pH 3.5, 150 mM NaCl], Mean PK Value (average of individual PK parameters)
[8] = pH 3.5, ID 0.3 ml C [10 mg/ml, Captopril 0.5 mg/ml, 10 mg/ml LLC, 400 mM Citrate pH 3.5, 150 mM NaCl]
[9] = pH 3.5, ID 0.3 ml C [10 mg/ml, Captopril 5 mg/ml, 10 mg/ml LLC, 400 mM Citrate pH 3.5, 150 mM NaCl]

CC[C@H](C)[C@H](NC(=O)[C@H](Cc1ccc(O)cc1)NC(=O)[C@@H](NC(=O)[C@H](CCCNC(=N)N)NC(=O)[C@@H](N)CC(=O)O)C(C)C)C(=O)N[C@@H](Cc1c[nH]cn1)C(=O)N1CCC[C@H]1C(=O)O [Angiotensin (1-7), Asp^1-Arg^2-Val^3-Tyr^4-Ile^5-His^6-Pro^7]
Tmax (3 mg, ID 0.3 ml A [10 mg/ml in PBS], Average (PK value of the mean concentrations), read-out: Tmax (converted)): 60 min | AUC(0-t) [1]: 6.72 ng·h/mL | Cmax [1]: 7.5 ng/mL | Half-Life (3 mg, ID 0.3 ml A [10 mg/ml in PBS], Mean PK Values (average of individual PK parameters), read-out: Half-Life): 38.9 min | Tmax (3 mg, ID 0.3 ml A [10 mg/ml in PBS], Mean PK Values (average of individual PK parameters), read-out: Tmax (converted)): 46 min | Half-Life (3 mg, ID, 0.3 mL of 10 mg/mL A(1-7) formulated in PBS, 6 rats, range over the group, read-out: Half-lives): 7 to 140 min | Tmax (3 mg, ID, 0.3 mL of 10 mg/mL A(1-7) formulated in PBS, 6 rats, range over the group, read-out: Tmax after administration): 10 to 60 min | AUC(0-t) [2]: 71.2 ng·h/mL | Cmax [2]: 416 ng/mL | Half-Life (3 mg, pH 3.5, ID 0.3 ml B [10 mg/ml, 10 mg/ml LLC, 400 mM Citrate pH 3.5, 150 mM NaCl], Average (PK value of the mean concentrations), read-out: Half-Life): 13 min | Tmax (3 mg, pH 3.5, ID 0.3 ml B [10 mg/ml, 10 mg/ml LLC, 400 mM Citrate pH 3.5, 150 mM NaCl], Average (PK value of the mean concentrations), read-out: Tmax (converted)): 5 min | AUC(0-t) [3]: 71.2 ng·h/mL | Cmax [3]: 419 ng/mL | Half-Life (3 mg, pH 3.5, ID 0.3 ml B [10 mg/ml, 10 mg/ml LLC, 400 mM Citrate pH 3.5, 150 mM NaCl], Mean PK Values (average of individual PK parameters), read-out: Half-Life): 46.4 min | Tmax (3 mg, pH 3.5, ID 0.3 ml B [10 mg/ml, 10 mg/ml LLC, 400 mM Citrate pH 3.5, 150 mM NaCl], Mean PK Values (average of individual PK parameters), read-out: Tmax (converted)): 5.8 min | Tmax (3 mg, pH 3.5, ID 0.3 ml B [10 mg/ml, 10 mg/ml LLC, 400 mM Citrate pH 3.5, 150 mM NaCl], individual rats, read-out: Tmax (converted)): 5 min | AUC(0-t) [4]: 126 ng·h/mL | Cmax [4]: 628 ng/mL | Half-Life (3 mg, pH 3.5, ID 0.3 ml C [10 mg/ml, Captopril 0.5 mg/ml, 10 mg/ml LLC, 400 mM Citrate pH 3.5, 150 mM NaCl], Average (PK value of the mean concentrations), read-out: Half-Life): 14 min | Tmax (3 mg, pH 3.5, ID 0.3 ml C [10 mg/ml, Captopril 0.5 mg/ml, 10 mg/ml LLC, 400 mM Citrate pH 3.5, 150 mM NaCl], Average (PK value of the mean concentrations), read-out: Tmax (converted)): 5 min | AUC(0-t) [5]: 119 ng·h/mL | Cmax [5]: 609 ng/mL | Half-Life (3 mg, pH 3.5, ID 0.3 ml C [10 mg/ml, Captopril 0.5 mg/ml, 10 mg/ml LLC, 400 mM Citrate pH 3.5, 150 mM NaCl], Mean PK Values (average of individual PK parameters), read-out: Half-Life): 19.4 min | Tmax (3 mg, pH 3.5, ID 0.3 ml C [10 mg/ml, Captopril 0.5 mg/ml, 10 mg/ml LLC, 400 mM Citrate pH 3.5, 150 mM NaCl], Mean PK Values (average of individual PK parameters), read-out: Tmax (converted)): 7.1 min | Tmax (3 mg, pH 3.5, ID 0.3 ml C [10 mg/ml, Captopril 0.5 mg/ml, 10 mg/ml LLC, 400 mM Citrate pH 3.5, 150 mM NaCl], individual rats, read-out: Tmax (converted)): 5 min | AUC(0-t) [6]: 157 ng·h/mL | Cmax [6]: 619 ng/mL | Half-Life (3 mg, pH 3.5, ID 0.3 ml C [10 mg/ml, Captopril 5 mg/ml, 10 mg/ml LLC, 400 mM Citrate pH 3.5, 150 mM NaCl], Average (PK value of the mean concentrations), read-out: Half-Life): 13 min | Tmax (3 mg, pH 3.5, ID 0.3 ml C [10 mg/ml, Captopril 5 mg/ml, 10 mg/ml LLC, 400 mM Citrate pH 3.5, 150 mM NaCl], Average (PK value of the mean concentrations), read-out: Tmax (converted)): 5 min | AUC(0-t) [7]: 156 ng·h/mL | Cmax [7]: 640 ng/mL | Half-Life (3 mg, pH 3.5, ID 0.3 ml C [10 mg/ml, Captopril 5 mg/ml, 10 mg/ml LLC, 400 mM Citrate pH 3.5, 150 mM NaCl], Mean PK Value (average of individual PK parameters), read-out: Half-Life): 14.1 min | Tmax (3 mg, pH 3.5, ID 0.3 ml C [10 mg/ml, Captopril 5 mg/ml, 10 mg/ml LLC, 400 mM Citrate pH 3.5, 150 mM NaCl], Mean PK Value (average of individual PK parameters), read-out: Tmax (converted)): 5.8 min | Tmax (3 mg, pH 3.5, ID 0.3 ml C [10 mg/ml, Captopril 5 mg/ml, 10 mg/ml LLC, 400 mM Citrate pH 3.5, 150 mM NaCl], individual rats, read-out: Tmax (converted)): 5 min | Half-Life (3 mg, pH 3.5, ID, 0.3 mL of 10 mg/mL A(1-7) with 10 mg/mL LLC, 400 mM Citrate, 150 mM NaCl pH 3.5, range over the group, read-out: Half-lives): 9.3 to 173 min | Tmax (3 mg, pH 3.5, ID, 0.3 mL of 10 mg/mL A(1-7) with 10 mg/mL LLC, 400 mM Citrate, 150 mM NaCl pH 3.5, range over the group, read-out: Tmax after administration): 5 to 10 min | Half-Life (pH 3.5, ID, 0.3 mL of 10 mg/mL A(1-7) with 0.5 mg/mL captopril, 10 mg/mL LLC, 400 mM Citrate, 150 mM NaCl pH 3.5, seven rats (Table 4), range over the group, read-out: Half-lives): 11.9 to 29.1 min | Half-Life (ID, 0.3 mL of 10 mg/mL A(1-7) with 0.5 mg/mL captopril (as printed in the text on Table 5), 10 mg/mL LLC, 400 mM Citrate, 150 mM NaCl pH 3.5, six rats, range over the group, read-out: Half-lives): 7.97 to 25.6 min | Tmax (ID, 0.3 mL of 10 mg/mL A(1-7) with 0.5 mg/mL captopril, 10 mg/mL LLC, 400 mM Citrate, 150 mM NaCl pH 3.5, seven rats (Table 4), range over the group, read-out: Tmax after administration): 5 to 10 min | level at 5 min [8]: 628 ng/mL | level at 10 min [8]: 233 ng/mL | level at 20 min [8]: 129 ng/mL | level at 40 min [8]: 13.9 ng/mL | level at 1 h [8]: 14.4 ng/mL | level at 1.5 h [8]: 7.74 ng/mL | level at 5 min [9]: 619 ng/mL | level at 10 min [9]: 424 ng/mL | level at 20 min [9]: 138 ng/mL | level at 40 min [9]: 24.1 ng/mL | level at 1 h [9]: 19.2 ng/mL | level at 1.5 h [9]: 5.83 ng/mL

From patent US20150246093A1, “ORAL FORMULATIONS OF ANGIOTENSIN” (TARIX PHARMACEUTICALS LTD., priority 2012, published 2015)
